This note sets out measurements from ChEMBL document CHEMBL1159133, “A cembranolide diterpene farnesyl protein transferase inhibitor from the marine soft coral Lobophytum cristagalli” (Bioorg Med Chem Lett, 1996).

For assay [1], the target named is T1, Protein farnesyltransferase (Homo sapiens, UniProt P49354+P49356). As to the kind of experiment: Inhibition of recombinant human farnesyl protein transferase. The class given is protein-complex assay.
The target in assay [2] is T1, Protein farnesyltransferase. As to the kind of experiment: Kinetic parameter for inhibition of farnesyl protein transferase. The class given is protein-complex assay.
For assay [3] the target is unchanged. As to the kind of experiment: Percent inhibition of H-Ras processing in COS cells at 5.3 uM. The class given is cell-based.
Assay [4] concerns the target Geranylgeranyl transferase type I (Homo sapiens, UniProt P49354+P53609). As to the kind of experiment: Inhibitory activity against recombinant human Geranylgeranyl transferase type I. The class given is protein-complex assay.

On to `C=C1C(=O)O[C@H]2[C@H]1[C@@H](OC(C)=O)C/C(C)=C/CC/C(C)=C/CC[C@@]1(C)O[C@H]21`, for which the IC50 was found to be 150 nM in assay [1] and 5300 nM in assay [4]. In assay [2], this compound had a Ki of 170 nM. In addition, the inhibition in assay [3] was determined as 26%.
